Converted amounts (≈) assume the structure as drawn.
Key:
Format in all cases: functional
[1] = tested on: Tetranychus urticae; experiment: Acaricidal activity against Tetranychus urticae (two-spotted spider mite) in two-leaf stage of kidney bean leaf surface at 500 ppm after 6 hr relative to control
[2] = tested on: Tetranychus urticae; experiment: Acaricidal activity against Tetranychus urticae (two-spotted spider mite) in two-leaf stage of kidney bean leaf surface at 62.5 ppm after 6 hr relative to control
[3] = tested on: Tetranychus urticae; experiment: Acaricidal activity against Tetranychus urticae (two-spotted spider mite) in two-leaf stage of kidney bean leaf surface at 15.6 ppm after 6 hr relative to control
[4] = tested on: Tetranychus urticae; experiment: Acaricidal activity against Tetranychus urticae (two-spotted spider mite) in two-leaf stage of kidney bean leaf surface at 250 ppm after 6 hr relative to control
[5] = tested on: Tetranychus kanzawai; experiment: Acaricidal activity against Tetranychus kanzawai in kidney bean leaf surface after 48 hr
[6] = tested on: Tetranychus urticae; experiment: Acaricidal activity against Tetranychus urticae (two-spotted spider mite) in kidney bean leaf surface after 48 hr

Structure (SMILES) | Activity [1] [%] | further results
CO/N=C(/c1ccc(Cl)cc1)c1ccccc1COc1nnc(C(F)(F)F)s1 | 0 | –
CO/N=C(/c1ccc(Cl)cc1)c1ccccc1COc1ncccc1C(F)(F)F | 0 | –
CO/N=C(/c1ccc(Cl)cc1)c1ccccc1COc1ncc(C(F)(F)F)cc1Cl | 0 | –
CO/N=C(/c1ccccc1)c1ccccc1COc1ccc(C(F)(F)F)cn1 | 0 | –
CON=C(c1ccccc1F)c1ccccc1COc1ccc(C(F)(F)F)cn1 | 0 | –
CO/N=C(/c1cccc(F)c1)c1ccccc1COc1ccc(C(F)(F)F)cn1 | 70 | –
CO/N=C(/c1ccc(F)cc1)c1ccccc1COc1ccc(C(F)(F)F)cn1 | 95 | Activity [2]: 70%; Activity [3]: 0%; Activity [4]: 95%
CO/N=C(/c1ccccc1Cl)c1ccccc1COc1ccc(C(F)(F)F)cn1 | 0 | –
CO/N=C(/c1cccc(Cl)c1)c1ccccc1COc1ccc(C(F)(F)F)cn1 | 0 | –
CO/N=C(/c1ccc(C)cc1)c1ccccc1COc1ccc(C(F)(F)F)cn1 | 0 | –
CO/N=C(/c1ccc(OC)cc1)c1ccccc1COc1ccc(C(F)(F)F)cn1 | 0 | –
CO/N=C(/c1ccc(Br)cc1)c1ccccc1COc1ccc(C(F)(F)F)cn1 | 95 | Activity [2]: 95%; Activity [3]: 70%; Activity [4]: 95%
CO/N=C(/c1ccc(C(F)(F)F)cc1)c1ccccc1COc1ccc(C(F)(F)F)cn1 | 95 | LC50 [5]: 7.2 µg/mL (≈ 15.8 µM); LC50 [6]: 24.8 µg/mL (≈ 54.6 µM); Activity [2]: 95%; Activity [3]: 70%; Activity [4]: 95%
CO/N=C(/c1ccc(OC(F)(F)F)cc1)c1ccccc1COc1ccc(C(F)(F)F)cn1 | 95 | Activity [2]: 70%; Activity [3]: 0%; Activity [4]: 70%
CO/N=C(/c1ccc([N+](=O)[O-])cc1)c1ccccc1COc1ccc(C(F)(F)F)cn1 | 95 | Activity [2]: 70%; Activity [3]: 0%; Activity [4]: 95%
CO/N=C(/c1ccc(C#N)cc1)c1ccccc1COc1ccc(C(F)(F)F)cn1 | 95 | Activity [2]: 70%; Activity [3]: 0%; Activity [4]: 95%
CO/N=C(/c1ccc(-c2ccccc2)cc1)c1ccccc1COc1ccc(C(F)(F)F)cn1 | 0 | –
CO/N=C(/c1ccc(Oc2ccccc2)cc1)c1ccccc1COc1ccc(C(F)(F)F)cn1 | 0 | –
CO/N=C(/c1ccc(Cl)cc1)c1ccccc1COc1ccccc1 | 0 | –
CO/N=C(/c1ccc(Cl)cc1)c1ccccc1COc1ccccc1Cl | 0 | –

Structure (SMILES) | Activity [1] [%] | further results
CO/N=C(/c1ccc(Cl)cc1)c1ccccc1COc1cccc(Cl)c1 | 0 | –
CO/N=C(/c1ccc(Cl)cc1)c1ccccc1COc1ccc(Cl)cc1 | 0 | –
CO/N=C(/c1ccc(Cl)cc1)c1ccccc1COc1ccccc1C(F)(F)F | 0 | –
CO/N=C(/c1ccc(Cl)cc1)c1ccccc1COc1cccc(C(F)(F)F)c1 | 0 | –
CO/N=C(/c1ccc(Cl)cc1)c1ccccc1COc1ccc(C(F)(F)F)cc1 | 95 | Activity [2]: 0%; Activity [4]: 95%
CO/N=C(/c1ccc(Cl)cc1)c1ccccc1COc1ccc(C)cc1 | 0 | –
CO/N=C(/c1ccc(Cl)cc1)c1ccccc1COc1ccc(C(C)(C)C)cc1 | 0 | –
CO/N=C(/c1ccc(Cl)cc1)c1ccccc1COc1ccc(OC(F)(F)F)cc1 | 0 | –
CO/N=C(/c1ccc(Cl)cc1)c1ccccc1COc1ccc(-c2ccccc2)cc1 | 0 | –
CO/N=C(\c1ccc(Cl)cc1)c1ccccc1COc1ccc(C(F)(F)F)cc1 | 95 | Activity [4]: 70%
CON=C(c1ccc(Cl)cc1)c1cccc(COc2ccc(C(F)(F)F)cc2)c1 | 0 | –
CON=C(c1ccc(Cl)cc1)c1ccc(COc2ccc(C(F)(F)F)cc2)cc1 | 0 | –
CO/N=C(\c1ccc(F)cc1)c1ccccc1COc1ccc(C(F)(F)F)cc1 | 70 | –
CO/N=C(/c1ccc(F)cc1)c1ccccc1COc1ccc(C(F)(F)F)cc1 | 95 | Activity [4]: 0%
CON=C(c1ccc(F)cc1)c1cccc(COc2ccc(C(F)(F)F)cc2)c1 | 0 | –
CON=C(c1ccc(F)cc1)c1ccc(COc2ccc(C(F)(F)F)cc2)cc1 | 0 | –
CO/N=C(/c1ccc(Cl)cc1)c1ccccc1Oc1ccc(C(F)(F)F)cc1 | 0 | –
CO/N=C(/c1ccc(Cl)cc1)c1ccccc1OCc1ccc(C(F)(F)F)cc1 | 0 | –
CO/N=C(/c1ccc(Cl)cc1)c1ccccc1COc1ccc(C(F)(F)F)cn1 | 95 | LC50 [5]: 9 µg/mL (≈ 21.4 µM); LC50 [6]: 16.4 µg/mL (≈ 39 µM); Activity [2]: 95%; Activity [3]: 95%; Activity [4]: 95%
CC(C)(C)c1ccc(CSc2cnn(C(C)(C)C)c(=O)c2Cl)cc1 [PYRIDABEN] | – | LC50 [5]: 33.7 µg/mL (≈ 92.3 µM); LC50 [6]: 34.5 µg/mL (≈ 94.5 µM)

From ChEMBL document CHEMBL3044726, “Synthesis and Acaricidal Activities of New Benzophenone O-Methyloximes” (2001)
